According to publication PMC8111447 (Frontiers in Pharmacology, 2021):
Where two headings read alike, the source gives them in different places.

Assays:
[1] = parameters: method as in earlier work; details: main metabolites of osimertinib, ref Cheng et al., 2016, Dickinson et al., Vishwanathan et al., 2019; cited from earlier work
EGFR T790M = system: EGFR T790M; parameters: method as in Cross et al., 2014; details: ref Cross et al., 2014; cited from earlier work
NSCLC patients = details: cited from earlier work
[2] = system: NCI-H1975 (EGFR^L858R/T790M); experiment: Cell proliferation assay (CTG, 72 h); type: cell-based; details: Homo sapiens, NCI-H1975 cells, mean ± SD, n = 3
Method: (§1) Human lung cancer cell lines (NCI-H1975, H3255 and A431) were obtained from the American Type Culture Collection (ATCC), while PC-9 cell line was supplied by the European Collection of Authenticated Cell Cultures (ECACC). For in vivo implantation, NCI-H1975, H3255 and PC-9 cells were cultured in RPMI1640 (Invitrogen) supplemented with 10% v/v fetal calf serum (Sigma-Aldrich) and 2 mmol/L L-glutamine (Invitrogen). A431 cells were cultured in DMEM (Invitrogen) supplemented with 10% v/v fetal calf serum and 2 mmol/L v/v L-glutamine. All cell lines were then cultured in a humidified incubator with 5% CO2 at 37°C.
(§2) Test compounds were dissolved in DMSO as a 10 mmol/L stock solution. The initial concentration of compounds were 10 μmol/L and the 3-fold dilution was nine times. […] Plate was shaked for 2 min and the mixture was incubated at room temperature for 10 min.
(§3) The half-maximal inhibition concentration (IC50) values were processed by GraphPad Prism7 (GraphPad Software; La Jolla, CA).

A431 (EGFR^WT) = experiment: Cell proliferation assay (CTG, 72 h); type: cell-based; details: Homo sapiens, A-431, A431 cells, mean ± SD, n = 3
Method: as §1, §2, §3

PC-9 (EGFR^d746–750) = experiment: Cell proliferation assay (CTG, 72 h); type: cell-based, human; details: Homo sapiens; PC-9 cells, 72 h; mean ± SD, n = 3
Method: as §1, §2, §3

H3255 (EGFR^L858R) = experiment: Cell proliferation assay (CTG, 72 h); type: cell-based, human; details: Homo sapiens, NCI-H3255; H3255 cells, 72 h; mean ± SD, n = 3
Method: as §1, §2, §3

[3] = system: A431 (wild-type EGFR) tumor xenografts; experiment: A431 xenograft model; type: in vivo, Nu/Nu nude mice; details: 30 mg/kg
Method: The female Nu/Nu nude mice were purchased from Beijing Vital River Laboratories. […] Nu/Nu nude mice were purchased from the Beijing Vital River Laboratories of China. The 6–8 weeks old female mice were inoculated subcutaneously at the right flank with approximately 3–5 × 10^6 tumor cells in 0.2 ml of medium. The treatments were started when the tumor size reached approximately 200 mm^3. […] All mice were orally administrated once daily for consecutive 14 days. Mouse body weight, tumor weight and tumor volume (TV) were measured twice per week. TV was then used for the calculation of tumor inhibitory rate and tumor regression rate.

[4] = NSCLC patients with EGFR T790M mutation, ref Jänne et al., 2015, Mok et al., 2017

SMILES: C=CC(=O)Nc1cc(Nc2nccc(-c3c[nH]c4ccccc34)n2)c(OC)cc1N(C)CCN(C)C [AZ5104]
- metabolite level relative to the parent drug [1]: about 10%
- fold more active on EGFR T790M than osimertinib (EGFR T790M): 8 fold

SMILES: C=CC(=O)Nc1cc(Nc2nccc(-c3cn(C)c4ccccc34)n2)c(OC)cc1N(C)CCNC [AZ7550]
- metabolite level relative to the parent drug [1]: about 10%

SMILES: C=CC(=O)Nc1cc(Nc2nccc(-c3cn(C)c4ccccc34)n2)c(OC)cc1N(C)CCN(C)C [Osimertinib]
- ORR (NSCLC patients; [4]): 70%
- median PFS (NSCLC patients; [4]): 9.9 months
- efficacy compared to the first-line EGFR TKIs (NSCLC patients; advanced NSCLC patients with EGFR mutations, comparator 10.2 months, ref Soria et al., 2018, Ramalingam et al., 2020): 18.9 months
- overall survival (NSCLC patients; advanced NSCLC patients with EGFR mutations, comparator group 31.8 months, ref Soria et al., 2018, Ramalingam et al., 2020): 38.6 months
- ORR (NSCLC patients; second-line, locally advanced or metastatic NSCLC progressed on prior EGFR TKI, ref Goss et al., 2016, Mok et al., 2017): 70%
- IC50 (PC-9 (EGFR^d746–750)): 14.2 ± 1.63 nM
- IC50 (H3255 (EGFR^L858R)): 17.8 ± 0.5 nM

SMILES: CN(C)C/C=C/C(=O)Nc1cc2c(Nc3ccc(F)c(Cl)c3)ncnc2cc1O[C@H]1CCOC1 [afatinib, reference compound]
- body weight [3]: severe body loss
